Reference: US10780076B2, “Inhibition of cancer cell motility” (Northwestern University, priority 2014, dated 2020)

How the values were obtained:
[1] = tested on: osteonectin expression in PC3 cells; assay: Gene array screen for differentially expressed genes; type: cell-based, human
Procedure: FIGS. 21A-C. KBU2046 disrupts osteonectin expression. PC3 cells were treated +/− with 10 uM KBU2046×3 d (A), or were transfected with siRNA to osteonectin (siOST) or non-targeting (siCO) (B), and osteonectin/GAPDH expression measured by qRT/PCR. (C) PC3 cells were transfected with siOST, siCO, treated with +/−KBU2046, and cell invasion measured.
Having identified inhibition of Ser^226 phosphorylation as the molecular target of KBU2046 for inhibition of cell motility, experiments were conducted during development of embodiments herein to identify downstream regulators of its action. PC3 cells with KBU2046, and screened for differentially expressed genes using two different SABiosciences (Qiagen) gene array platforms: Human Metastasis Array and Human Extracellular Matrix and Adhesion Molecule Array. […] No other significant effects were identified. Separate experiments confirmed differential expression by gene-specific qRT/PCR (FIG. 21A). […] Clinically, overexpression of osteonectin in primary PCa has been associated with the development of metastasis to bone.

[2] = tested on: human PCa PC3-M cell orthotopic implants; assay: Orthotopic murine model of human PCa metastasis; type: in vivo, mice; details: lung metastasis, KBU2046 in chow, dose-dependent
Procedure: FIGS. 3A-D. KBU2046 inhibits cancer metastasis and prolongs life. (A, B) Inhibition of PCa metastasis. Cohorts of athymic mice bearing human PCa PC3-M cell orthotopic implants (A), or of non-tumor bearing athymic mice (B), were treated with KBU2046 incorporated into chow, and resultant lung metastasis (A) or plasma KBU2046 concentration (B) measured. Values are the mean±SEM. The relationship between dose and metastasis was evaluated by two-sided ANOVA (A). (C) Comprehensive characterization of KBU2046 phannacokinetics. CD1 mice were dosed with 100 mg KBU2046/kg via oral gavage or intravenous injection (iv), and blood collected at the indicated time points. The dotted horizontal line denotes a concentration of 24 nM, which was the concentration of KBU2046 measured in the blood of mice whose metastasis were suppressed by 92% (A, B). […]
Orthotopic implantation of human PCa cells and quantification of distant metastasis was performed as described (Pavese et al., 2013; herein incorporated by reference in its entirety). […] Quantification of KBU2046 plasma concentrations was performed by LCMS. […] Critical organs were examined for structural damage using a semi-quantitative histological scoring system (Knodell et al., 1981; herein incorporated by reference in its entirety), while their function was assessed by comprehensive clinical laboratory testing of blood samples. […]

[3] = tested on: human bone marrow stem cells; assay: Hematopoietic stem cell 14-day colony formation assay; type: cell-based; details: colonies at 14 days
Procedure: (FIG. 2A) Cell invasion. Human prostate metastatic cells (PC3, PC3-M), and HPV transformed normal (1532NPTX, I542NPTX) and primary cancer (1532CPTX, 1542CPTX) cells, were treated with 10 μM genistein (G), KBU2046 (46) or vehicle (CO), and after 3 days, cell invasion was measured. Values are mean±SEM. (FIG. 2B) Single cell migration. Cell migration was measured after treatment for 3 days with 10 μM KBU2046 or vehicle (control). Values are mean±SEM. *Denotes Student's t test P value </=0.05, compared to controls. […] Values are mean±SEM. (FIG. 2D) Human cord blood hematopoietic stem cell colony formation assay. Values are the mean±SD number of total, CFU-GM, CFU-GEMM or BFU-E colonies at 14 days after treatment with KBU2046. […]
Additional functional measures of toxicity included a NCI-based screen of the NCI 60-cell line panel (Shoemaker, 2006; herein incorporated by reference in its entirety), expression of estrogen-responsive genes by qRT/PCR (Ding et al., 2007; herein incorporated by reference in its entirety), induction of an estrogen-responsive promoter by luciferase assay (Breen et al., 2013; Catherino and Jordan, 1995; herein incorporated by reference in their entireties), and a hematopoietic stem cell 14-day colony formation assay (Bergan et al., 1996; herein incorporated by reference in its entirety). […] The migration of individual cells was assessed by time-lapse video microscopy.

NCI 60 cell line panel = NCI 60 cell line panel screen; type: cell-based, human; details: initial screening per DTP protocol
Text: FIG. 8. […] KBU2046 was submitted to the Developmental Therapeutics Program (DTP) of the US National Cancer Institute (NCI), underwent initial screening across the NCI 60 cell line panel per DTP protocol (Shoemaker, 2006; herein incorporated by reference in its entirety), and the resultant COMPARE diagram is depicted.
Additional functional measures of toxicity included a NCI-based screen of the NCI 60-cell line panel (Shoemaker, 2006; herein incorporated by reference in its entirety), expression of estrogen-responsive genes by qRT/PCR (Ding et al., 2007; herein incorporated by reference in its entirety), induction of an estrogen-responsive promoter by luciferase assay (Breen et al., 2013; Catherino and Jordan, 1995; herein incorporated by reference in their entireties), and a hematopoietic stem cell 14-day colony formation assay (Bergan et al., 1996; herein incorporated by reference in its entirety). Protein Data Base (PDB) X-ray crystallographic structural data (PDB IDs: IX7R, IX7J) was used to determine what chemical groups of genistein bound to the ER. The migration of individual cells was assessed by time-lapse video microscopy.

O=C1c2ccccc2OCC1c1ccc(F)cc1 (racemic) [KBU2046, 4′-fluoroisoflavanone]
suppression of osteonectin expression [1]: 2.0 fold
decrease in metastasis [2]: up to 92%
toxicity to human bone marrow stem cells [3]: not toxic
cell toxicity in NCI 60 cell line panel (NCI 60 cell line panel): minimal-to-no cell toxicity
